Measurements: patent US20220144850A1, “INDOLO HEPTAMYL OXIME ANALOGUE AS PARP INHIBITOR” (Chia Tai Tianqing Pharmaceutical Group Co., Ltd., priority 2019, published 2022)
Like-named read-outs stand apart in the source and are kept apart here.

How the values were obtained:
[1] = Metabolic stability in liver microsomes, rat; format: in vitro ADME; conditions: Rat liver microsomes 0.5 mg/mL, 1 μM compound, NADPH, 37° C.
Protocol: Experimental Example 7. Metabolic Stability in Liver Microsomes
Experimental objective: to test the metabolic stability of test compounds in liver microsomes of three species.
Experimental method: 1 μM test compound and a microsome (0.5 mg/mL) were incubated at 37° C. in the presence of an NADPH regeneration system; positive controls were testosterone (3A4 substrate), propylamine propiophenone (2D6 substrate) and diclofenac (2C9 substrate), and also at 37° C., a positive control was incubated with a microsome (0.5 mg/mL) in the presence of an NADPH regenerating system; the reaction was stopped by direct mixing of the sample with cold acetonitrile containing an internal standard at various time points (0, 5, 10, 20, 30 and 60 min); the compound and microsome were incubated for 60 min in the absence of an NADPH regenerating system; one parallel (n=1) was set at each time point; the samples were analyzed by LC/MS/MS; the concentration of the compound was characterized by the ratio of the analyte peak area to the internal standard peak area.

[2] = biological target: T1, CYP1A2 (Homo sapiens, UniProt P05177); assay: Inhibition against cytochrome P450 isoenzyme, human liver microsomes; format: in vitro ADME
T1 construct: a human liver microsome solution; from tissue; host or cells: human liver microsomes
T1 sequence (P05177 1-516): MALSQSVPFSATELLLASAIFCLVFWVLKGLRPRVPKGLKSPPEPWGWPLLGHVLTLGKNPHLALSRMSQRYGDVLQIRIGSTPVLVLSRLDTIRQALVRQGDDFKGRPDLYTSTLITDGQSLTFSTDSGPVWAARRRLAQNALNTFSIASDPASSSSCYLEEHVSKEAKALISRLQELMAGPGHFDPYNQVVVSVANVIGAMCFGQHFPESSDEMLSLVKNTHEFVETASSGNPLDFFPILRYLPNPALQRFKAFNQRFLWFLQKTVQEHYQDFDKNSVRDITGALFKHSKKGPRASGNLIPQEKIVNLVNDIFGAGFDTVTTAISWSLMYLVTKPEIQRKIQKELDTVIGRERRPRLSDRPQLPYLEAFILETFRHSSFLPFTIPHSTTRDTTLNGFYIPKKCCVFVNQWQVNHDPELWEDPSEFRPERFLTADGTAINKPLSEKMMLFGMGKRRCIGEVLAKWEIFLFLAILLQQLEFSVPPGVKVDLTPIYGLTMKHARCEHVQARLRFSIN
Protocol: (§1) Experimental Example 6: Study on Inhibition Against Cytochrome P450 Isoenzyme
(§2) The inhibition of the test compounds against different subtypes of the human cytochrome P450 isoenzyme was determined. Test compounds, a standard inhibitor (100×final concentration) and a mixed substrate working solution were prepared; the microsomes frozen in a refrigerator at −80° C. were taken out and thawed. 2 μL of a solution of the test compound and the standard inhibitor was added to corresponding wells, and 2 μL of a corresponding solvent was added to a non-inhibitor control (NIC) well and a blank control (Blank) well; then, 20 μL of a solution of mixed substrate was added to corresponding wells except for the Blank well (adding 20 μL of PB to the Blank well); a human liver microsome solution (marking the date after use and immediately putting back to a refrigerator) was prepared and then added to all wells at 158 μL per well; the sample plate was put into a 37° C. water bath for pre-incubation, and then a coenzyme factor (NADPH) solution was prepared; after 10 min, the NADPH solution was added to all the wells at 20 μL per well, and the sample plate was shaken to mix the mixture well and then incubated in a 37° C. water bath for 10 min; at corresponding time points, 400 μL of cold acetonitrile solution (internal standard: 200 ng/mL tolbutamide and labetalol) was added to stop the reaction; after being mixed well, the mixture in the sample plate was centrifuged at 4,000 rpm for 20 min to precipitate proteins; 200 μL of supernatant was collected and added into 100 μL of water, and the mixture was mixed well and then assayed by LC/MS/MS.

[3] = biological target: T2, CYP2C9 (Homo sapiens, UniProt P11712); assay: as above; format: in vitro ADME
T2 construct: a human liver microsome solution; from tissue; host or cells: human liver microsomes
Protocol: as §1, §2

[4] = biological target: T3, CYP2C19 (Homo sapiens, UniProt P33261); assay: as above; format: in vitro ADME
T3 construct: a human liver microsome solution; from tissue; host or cells: human liver microsomes
Protocol: as §1, §2

[5] = biological target: T4, CYP2D6 (Homo sapiens, UniProt P10635); assay: as above; format: in vitro ADME
T4 construct: a human liver microsome solution; from tissue; host or cells: human liver microsomes
Protocol: as §1, §2

[6] = biological target: T5, CYP3A4-M (Homo sapiens, UniProt P08684); assay: as above; format: in vitro ADME
T5 construct: a human liver microsome solution; from tissue; host or cells: human liver microsomes
Protocol: as §1, §2

[7] = Single-dose pharmacokinetic study in mice; format: in vivo; conditions: male C57BL/6 mice; for Maximum concentration / bioavailability / clearance / half-life / Vd: IV: 1 mg/kg PO: 5 mg/kg; for bioavailability / clearance / half-life / Vd / AUC(0-t): mouse, plasma; for Vd: read-out: Apparent volume of distribution
Description: Experimental Example 8: Single-Dose Pharmacokinetic Study in Mice
Experimental objective: to evaluate the pharmacokinetic behavior by using male C57BL/6 mice as test animals and determining the drug concentrations of the compounds in the plasma, liver and cerebrospinal fluid after single-dose administration.
Experimental method: healthy adult male C57BL/6 mice were selected for intragastric administration. A candidate compound was mixed with an appropriate amount of 10% DMSO/90% (20% hydroxypropyl-β-cyclodextrin), vortexed and sonicated to prepare a 0.5 mg/mL clear solution for later use. After the mice were administered intravenously at 1 mg/kg and orally at 5 mg/kg, whole blood was collected at certain time points, and plasma was separated, and liver and cerebrospinal fluid were collected. After pretreatment of the samples, the drug concentration was measured by LC-MS/MS, and pharmacokinetic parameters were calculated using Phoenix WinNonlin software.

[8] = intravenous 1 mg/kg, read-out: AUC0-last (intravenous injection)
[9] = oral 5 mg/kg, read-out: AUC0-last (oral)

T2 sequence (P11712 whole entry): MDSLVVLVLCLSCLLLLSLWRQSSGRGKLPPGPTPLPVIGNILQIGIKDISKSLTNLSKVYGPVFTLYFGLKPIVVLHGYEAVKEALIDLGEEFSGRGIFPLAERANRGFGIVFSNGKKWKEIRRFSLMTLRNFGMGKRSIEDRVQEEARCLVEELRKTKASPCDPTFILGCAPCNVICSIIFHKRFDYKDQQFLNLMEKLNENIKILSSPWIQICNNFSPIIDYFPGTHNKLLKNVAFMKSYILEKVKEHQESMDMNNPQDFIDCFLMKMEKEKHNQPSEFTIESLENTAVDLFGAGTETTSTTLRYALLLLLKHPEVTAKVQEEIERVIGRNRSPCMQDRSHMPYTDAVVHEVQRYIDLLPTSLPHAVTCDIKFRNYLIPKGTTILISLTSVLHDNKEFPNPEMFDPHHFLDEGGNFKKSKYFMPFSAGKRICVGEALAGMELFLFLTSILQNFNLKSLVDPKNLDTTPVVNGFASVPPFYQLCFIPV
T4 sequence (P10635 whole entry): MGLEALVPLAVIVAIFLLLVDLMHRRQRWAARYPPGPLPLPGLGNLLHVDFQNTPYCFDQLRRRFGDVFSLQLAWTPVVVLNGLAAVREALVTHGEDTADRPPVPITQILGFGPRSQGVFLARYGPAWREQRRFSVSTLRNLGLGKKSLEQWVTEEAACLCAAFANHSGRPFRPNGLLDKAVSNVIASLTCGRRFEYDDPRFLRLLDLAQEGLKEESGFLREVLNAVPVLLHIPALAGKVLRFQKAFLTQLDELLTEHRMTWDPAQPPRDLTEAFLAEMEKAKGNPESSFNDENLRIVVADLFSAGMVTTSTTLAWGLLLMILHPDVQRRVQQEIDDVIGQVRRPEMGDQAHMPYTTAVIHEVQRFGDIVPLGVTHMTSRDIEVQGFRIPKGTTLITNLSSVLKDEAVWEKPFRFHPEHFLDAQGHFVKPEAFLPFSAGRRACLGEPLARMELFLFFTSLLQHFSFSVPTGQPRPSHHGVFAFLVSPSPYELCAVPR
T3 sequence (P33261 whole entry): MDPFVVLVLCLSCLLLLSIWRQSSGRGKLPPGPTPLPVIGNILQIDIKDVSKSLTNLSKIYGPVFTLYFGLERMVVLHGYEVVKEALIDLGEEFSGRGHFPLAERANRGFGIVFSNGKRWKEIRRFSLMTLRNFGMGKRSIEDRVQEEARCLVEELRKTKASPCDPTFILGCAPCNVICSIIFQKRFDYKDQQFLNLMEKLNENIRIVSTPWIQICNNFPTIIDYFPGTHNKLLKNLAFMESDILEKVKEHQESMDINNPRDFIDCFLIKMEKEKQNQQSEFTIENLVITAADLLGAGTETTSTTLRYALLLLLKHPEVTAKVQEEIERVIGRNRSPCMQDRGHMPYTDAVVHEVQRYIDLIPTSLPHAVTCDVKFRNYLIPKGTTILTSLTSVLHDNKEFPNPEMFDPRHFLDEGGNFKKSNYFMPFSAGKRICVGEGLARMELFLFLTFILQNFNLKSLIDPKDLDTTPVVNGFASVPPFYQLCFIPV
T5 sequence (P08684 whole entry): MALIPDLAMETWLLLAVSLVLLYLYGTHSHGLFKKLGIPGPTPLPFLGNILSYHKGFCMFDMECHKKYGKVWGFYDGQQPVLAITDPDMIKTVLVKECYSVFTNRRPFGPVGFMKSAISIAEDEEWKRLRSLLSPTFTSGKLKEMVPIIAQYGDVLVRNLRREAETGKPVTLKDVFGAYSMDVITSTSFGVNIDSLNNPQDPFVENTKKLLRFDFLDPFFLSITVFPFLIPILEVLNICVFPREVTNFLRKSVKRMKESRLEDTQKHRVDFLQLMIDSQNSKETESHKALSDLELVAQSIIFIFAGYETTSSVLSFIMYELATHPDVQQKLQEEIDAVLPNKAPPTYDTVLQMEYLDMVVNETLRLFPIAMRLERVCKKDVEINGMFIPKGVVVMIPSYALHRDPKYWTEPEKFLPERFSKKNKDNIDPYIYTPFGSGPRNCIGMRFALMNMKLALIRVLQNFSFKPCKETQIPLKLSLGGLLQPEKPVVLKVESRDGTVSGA

SMILES | Residual content after 60 min of incubation [1] [%] | IC50 [2] [µM] | IC50 [3] [µM] | IC50 [4] [µM] | IC50 [5] [µM] | IC50 [6] [µM] | Maximum concentration [7] [nM] | bioavailability [7] [%] | clearance [7] [mL/min/kg] | half-life [7] [min] | Vd [7] [L/kg] | AUC(0-t) [7, 8] [µM·h] | AUC(0-t) [7, 9] [µM·h]
O=C1NOCc2c(-c3ccc(C4CCCN4)cc3)[nH]c3cc(F)cc1c23 (single isomer, unassigned) [Example 24_A] | 60.6 | 29.5 | > 50 | 17.2 | 6.98 | > 50 | 433 | 21.2 | 34.9 | 122 | 4.21 | 1.3 | 1.38
CC1(c2ccc(-c3[nH]c4cc(F)cc5c4c3CONC5=O)cc2)CCCN1 (stereo not shown) [Example 25_A] | 31.8 | > 50 | > 50 | 8.33 | 11.6 | 32.9 | 240 | 24.8 | 41 | 181 | 9.44 | 0.958 | 1.19

Second part, the molecule after the results:

Residual content after 60 min of incubation [1] [%] | IC50 [2] [µM] | IC50 [3] [µM] | IC50 [4] [µM] | IC50 [5] [µM] | IC50 [6] [µM] | Maximum concentration [7] [nM] | bioavailability [7] [%] | clearance [7] [mL/min/kg] | half-life [7] [min] | Vd [7] [L/kg] | AUC(0-t) [7, 8] [µM·h] | AUC(0-t) [7, 9] [µM·h] | SMILES
58.1 | > 50 | > 50 | 15.5 | 19.2 | 35 |  |  |  |  |  |  |  | O=C1NOCc2c(-c3ccc(C4CCCN4)c(F)c3)[nH]c3cccc1c23 (stereo not shown) [Example 11_A]
34.5 | > 50 | 49.7 | 3.31 | 20.2 | 14.1 | 285 | 37.9 | 60.7 | 129 | 8.22 | 0.679 | 1.29 | CC1(c2ccc(-c3[nH]c4cc(F)cc5c4c3CONC5=O)cc2F)CCCN1 (single isomer, unassigned) [Example 26_A]
55.4 |  |  |  |  |  |  |  |  |  |  |  |  | CC1(c2ccc(-c3[nH]c4cccc5c4c3CONC5=O)cc2)CCCN1 (stereo not shown) [Example 6_A]
